Calls of active or inactive are those of the source. No cut-off for these calls is given here.
Columns and labels:
[1] = molecular target: Stimulator of interferon genes protein (Homo sapiens) (UniProt Q86WV6); assay: Inhibition of human wild type STING (R232) expressed in human THP-1 Dual cells assessed as reduction in cGAMP-induced IL-6 expression; format: cell-based; conditions: 293-Dual hSTING-R232
[2] = molecular target: T1, Stimulator of interferon genes protein (Mus musculus, UniProt Q3TBT3); assay: Inhibition of mouse STING in mouse RAW cells assessed as secreted luciferase reporter of interferon stimulated gene (ISG) measured after 24 hrs incubation by QUANTI-Luc detection assay; format: cell-based
T1 sequence (Q3TBT3 whole entry): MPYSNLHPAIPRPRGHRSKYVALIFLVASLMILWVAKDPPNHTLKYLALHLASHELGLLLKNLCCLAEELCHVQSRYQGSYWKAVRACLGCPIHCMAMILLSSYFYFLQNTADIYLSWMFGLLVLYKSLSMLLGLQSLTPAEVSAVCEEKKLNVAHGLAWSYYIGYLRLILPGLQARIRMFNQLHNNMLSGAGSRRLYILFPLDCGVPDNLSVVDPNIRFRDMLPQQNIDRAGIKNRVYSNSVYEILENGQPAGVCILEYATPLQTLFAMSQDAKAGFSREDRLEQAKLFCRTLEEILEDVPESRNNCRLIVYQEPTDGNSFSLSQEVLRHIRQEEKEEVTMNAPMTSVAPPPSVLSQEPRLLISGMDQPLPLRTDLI

[3] = Half life in Sprague-Dawley rat at 1 mg/kg, iv; format: ADME, organism-based; conditions: in vivo
[4] = Volume of distribution at steady state in Sprague-Dawley rat at 1 mg/kg, iv; format: ADME, organism-based; conditions: Sprague-Dawley, in vivo, read-out: Vdss
[5] = MRT (0 to infinity) in Sprague-Dawley rat at 3 mg/kg, po; format: ADME, organism-based; conditions: in vivo
[6] = Oral bioavailability in Sprague-Dawley rat at 3 mg/kg; format: ADME, organism-based; conditions: in vivo
[7] = Metabolic stability in rat liver microsomes assessed as microsomal intrinsic clearance; format: ADME, Microsome; conditions: read-out: CLH
[8] = Metabolic stability in rat liver microsomes assessed as liver intrinsic clearance; format: ADME, Microsome
[9] = molecular target: Stimulator of interferon genes protein (Homo sapiens) (UniProt Q86WV6); assay: Inhibition of STING in human THP1-Dual cells assessed as inhibition of MSA-2 induced ISG signalling measured after 1 hr incubation followed by stimulated with MSA-2 by Western blotting analysis; format: cell-based
[10] = molecular target: Stimulator of interferon genes protein (Homo sapiens) (UniProt Q86WV6); assay: Inhibition of STING downstream signalling in human THP1-Dual cells assessed as inhibition of MSA-2 induced IP-10 secretion at 0.3 to 3 uM pre-treated for 1 hr followed by stimulated with MSA-2 measured after 24 hrs by ELISA; format: cell-based; conditions: dose 0.3-3 µM, time 25.0 hrs
[11] = molecular target: Stimulator of interferon genes protein (Homo sapiens) (UniProt Q86WV6); assay: Inhibition of STING downstream signalling in human THP1-Dual cells assessed as inhibition of HT-DNA induced ISG56 mRNA expression at 0.3 to 3 uM pre-treated for 1 hr followed by stimulated with HT-DNA measured after 4 hrs by real-time PCR analysis; format: cell-based; conditions: dose 0.3-3 µM, time 5.0 hrs
[12] = molecular target: T2, Stimulator of interferon genes protein (Mus musculus) (UniProt Q3TBT3); assay: Inhibition of STING in mouse […] ISG cells assessed as reduction in MSA-2-induced secreted luciferase reporter of interferon stimulated gene (ISG) measured after 24 hrs incubation; format: cell-based; conditions: RAW-Lucia ISG
T2 sequence (whole entry): T1 sequence (Q3TBT3 whole entry)

[13] = molecular target: T2, Stimulator of interferon genes protein (Mus musculus); assay: Inhibition of STING downstream signalling in mouse RAW264.7 cells assessed as inhibition of […] induced IP-10 secretion level at 0.3 to 3 uM pre-treated for 1 hr followed by stimulated with […] measured after 24 hrs by ELISA; format: cell-based; conditions: dose 0.3-3 µM, time 25.0 hrs
[14] = molecular target: T2, Stimulator of interferon genes protein (Mus musculus); assay: Inhibition of STING downstream signalling in mouse RAW264.7 cells assessed as inhibition of DMAAA induced Isg56 mRNA level pre-treated for 1 hr followed by stimulated with DMAAA measured after 4 hrs by real-time PCR analysis; format: cell-based; conditions: dose 0.3-3 µM, time 5.0 hrs
[15] = molecular target: T2, Stimulator of interferon genes protein (Mus musculus); assay: Inhibition of STING downstream signalling in mouse BMDM cells assessed as inhibition of MSA-2 induced Ccl5 mRNA level pre-treated for 1 hr followed by stimulated with MSA-2 measured after 4 hrs by real-time PCR analysis; format: cell-based; conditions: dose 0.3-3 µM, time 5.0 hrs
[16] = molecular target: T2, Stimulator of interferon genes protein (Mus musculus); assay: Inhibition of STING downstream signalling in mouse BMDM cells assessed as inhibition of MSA-2 induced TBK1 phosphorylation pre-treated for 1 hr followed by stimulated with MSA-2 measured after 4 hrs by Western blot analysis; format: cell-based; conditions: dose 0.3-3 µM, time 5.0 hrs
[17] = molecular target: T2, Stimulator of interferon genes protein (Mus musculus); assay: Inhibition of STING downstream signalling in mouse BMDM cells assessed as inhibition of MSA-2 induced IRF3 phosphorylation pre-treated for 1 hr followed by stimulated with MSA-2 measured after 4 hrs by Western blot analysis; format: cell-based; conditions: dose 0.3-3 µM, time 5.0 hrs
Mus musculus [18] = assay: Anti-inflammatory activity against MSA-2 induced C57BL/6 mouse inflammation model assessed as inhibition of MSA-2 induced IL-6 mRNA expression in kidney at 10 mg/kg, ip pre-treated for 1 hr followed by stimulated with MSA-2 for 4 hrs by real-time PCR analysis; format: functional, organism-based; conditions: time 5.0 hrs
Mus musculus [19] = assay: Anti-inflammatory activity against MSA-2 induced C57BL/6 mouse inflammation model assessed as inhibition of MSA-2 induced TNF-alpha mRNA expression in kidney at 10 mg/kg, ip pre-treated for 1 hr followed by stimulated with MSA-2 for 4 hrs by real-time PCR analysis; format: functional, organism-based; conditions: time 5.0 hrs
Mus musculus [20] = assay: Anti-inflammatory activity against Cisplatin induced C57BL/6 mouse kidney inflammation model assessed as suppression of Cisplatin induced Ifn-beta mRNA level in kidney at 5 mg/kg, ip treated for 3 days by real-time PCR analysis; format: functional, organism-based; conditions: time 3.0 day
Mus musculus [21] = assay: Anti-inflammatory activity against Cisplatin induced C57BL/6 mouse kidney inflammation model assessed as suppression of Cisplatin induced Isg15 mRNA level in kidney at 5 mg/kg, ip treated for 3 days by real-time PCR analysis; format: functional, organism-based; conditions: time 3.0 day
Mus musculus [22] = assay: Anti-inflammatory activity against Cisplatin induced C57BL/6 mouse kidney inflammation model assessed as suppression of Cisplatin induced Isg56 mRNA level in kidney at 5 mg/kg, ip treated for 3 days by real-time PCR analysis; format: functional, organism-based; conditions: time 3.0 day
Mus musculus [23] = assay: Anti-inflammatory activity against Cisplatin induced C57BL/6 STING-KO mouse kidney inflammation model assessed as prevention of Cisplatin induced glomerular injury at 5 mg/kg, ip treated for 3 days; format: functional, organism-based; conditions: time 3.0 day
Mus musculus [24] = assay: Effect on Ifn-beta expression in Cisplatin induced C57BL/6 STING-KO mouse kidney inflammation model at 5 mg/kg, ip treated for 3 days by real-time PCR analysis; format: functional, organism-based; conditions: time 3.0 day
Mus musculus [25] = assay: Effect on Isg15 expression in Cisplatin induced C57BL/6 STING-KO mouse kidney inflammation model at 5 mg/kg, ip treated for 3 days by real-time PCR analysis; format: functional, organism-based; conditions: time 3.0 day
Mus musculus [26] = assay: Anti-inflammatory activity in TREX1 D18N mouse model assessed as reduction in Ifn-beta mRNA expression in kidney at 10 mg/kg, ip measured after 2 weeks; format: functional, organism-based
Mus musculus [27] = assay: Anti-inflammatory activity in TREX1 D18N mouse model assessed as reduction in IL6 mRNA expression in heart at 10 mg/kg, ip measured after 2 weeks; format: functional, organism-based
Mus musculus [28] = assay: Anti-inflammatory activity in TREX1 D18N mouse model assessed as reduction in Ifn-beta mRNA expression in heart at 10 mg/kg, ip measured after 2 weeks; format: functional, organism-based

Stimulator of interferon genes protein (Homo sapiens), sequence (Q86WV6 whole entry): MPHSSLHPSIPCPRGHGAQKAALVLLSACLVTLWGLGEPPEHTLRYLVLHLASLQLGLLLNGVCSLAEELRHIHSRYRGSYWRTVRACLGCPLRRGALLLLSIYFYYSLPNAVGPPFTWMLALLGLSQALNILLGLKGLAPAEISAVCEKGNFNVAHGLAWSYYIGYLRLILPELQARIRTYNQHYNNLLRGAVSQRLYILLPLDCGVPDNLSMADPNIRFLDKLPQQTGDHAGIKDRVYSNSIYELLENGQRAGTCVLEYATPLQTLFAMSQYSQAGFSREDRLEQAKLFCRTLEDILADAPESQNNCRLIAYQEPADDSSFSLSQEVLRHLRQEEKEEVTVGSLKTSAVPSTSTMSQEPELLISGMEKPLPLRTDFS

With `N#CC/C=C/c1ccc2[nH]cc(NC(=O)Nc3ccc4c(c3)OC(F)(F)O4)c2c1` the inhibition [1] was “Active”, the IC50 [2] was 96.3 nM and the half-life [3] was 0.33 h. For the same compound, the Vd [4] was 2.38 L/kg, the MRT [5] was 7.66 h and the bioavailability [6] was 12.7%. For the same compound, the microsomal CLint [7] was 36 µL/min/mg, the CLH [8] was 64.8 µL/min/mg and the inhibition [9] was “Dose-dependent-effect”. For the same compound, the inhibition [10] was “Active”, the inhibition [11] was “Active” and the inhibition [12] was “Dose-dependent-effect”. For the same compound, the inhibition [13] was “Active”, the inhibition [14] was “Dose-dependent-effect” and the inhibition [15] was “Dose-dependent-effect”. For the same compound, the inhibition [16] was “Dose-dependent-effect”, the inhibition [17] was “Dose-dependent-effect” and the inhibition (Mus musculus [18]) was “Active”. For the same compound, the inhibition (Mus musculus [19]) was “Active”, the inhibition (Mus musculus [20]) was “Active” and the inhibition (Mus musculus [21]) was “Active”. For the same compound, the inhibition (Mus musculus [22]) was “Active”, the Activity (Mus musculus [23]) was “inactive” and the Activity (Mus musculus [24]) was “inactive”. The Activity (Mus musculus [25]) was “inactive”, the Activity (Mus musculus [26]) was “Active” and the Activity (Mus musculus [27]) was “Active”. For the same compound, the Activity (Mus musculus [28]) was “Active”.

From ChEMBL document CHEMBL6109147, “Discovery of Potent STING Inhibitors Bearing a Difluorobenzodioxol Structural Motif as Potent Anti-Inflammatory Agents” (J Med Chem, 2025)
